Results as given in article PMC5947527 (Chemical Science, 2015).
“Also recorded” adds a separate entry of the source. Non-standard residues stand in square brackets, D forms with d. Residues, ends and D or L forms follow the SMILES beside them. *: point of attachment. NBD = O=[N+]([O-])c1ccc(*)c2nonc12; Nle = CCCC[C@H](N)C(=O)O; Ahx = NCCCCCC(=O)O

Tests used:
[1] = Chemical stability on storage in phosphate buffered saline at 37 °C (HPLC); format: physicochemical; conditions: 1 mg mL–1 in PBS, day 0 vs day 3, HPLC, detection at 380 nm
Description: This modification is particularly of relevance due to the expected in vivo inflammatory oxidative environment within an infected pneumonic lung due to infiltrating host inflammatory cells such as neutrophils,[13] and therefore all subsequent modifications incorporated Nle in place of Met.
HPLC chromatograms (gradient acetonitrile + 0.1% formic acid/water + 0.1% formic acid from 5/95 to 95/5 over 10 min, then isocratic for 4 min; detection at 380 nm). UBI-2 (1 mg mL^–1 in PBS, upper panels) and UBI-3 (1 mg mL^–1 in PBS, lower panels) at (A) day 0 and (B) day 3 after incubation at 37 °C.

[2] = test system: methicillin-sensitive Staphylococcus aureus (MSSA), Pseudomonas aeruginosa and Klebsiella pneumoniae; assay: Confocal bacterial labelling, UBI-2 vs UBI-3 on a panel of bacteria; format: cell-based; conditions: fluorescence normalised to UBI-2, mean ± SEM, n ≥ 3
Description: Fig. 3 UBI-3 retains specificity and sensitivity for bacterial labelling. […] Panels show bacteria labelled with either UBI-2 or UBI-3 with quantification of fluorescence (values normalised to UBI-2) (Bars represent mean, error bars represent standard error of mean, n ≥ 3, ns = not significant, scale bar = 10 μm). (B) Quantification from confocal images of UBI-3 (10 μM) imaging a panel of bacteria (statistical analyses shown compared to unlabelled bacteria, n ≥ 3 for each bacteria, *** = p < 0.001). […] [MRSA: methicillin-resistant Staphylococcus aureus, MSSA: methicillin-sensitive Staphylococcus aureus]. […]
(§1) Confocal Analysis and Fluorescence Quantification: 8-Well Lab-Tek II Confocal Chambers (VWR, PA, USA) were coated in fibronectin (for neutrophil experiments) or poly-d-lysine (for bacteria) at 37 °C for 20 minutes, then washed in PBS prior to bacterial innoculation. […] Exposure to 488 nm light was limited to 5% of the maximum laser power in order to minimize toxicity. ‘Green’ fluorescence (for FAM and NBD) was excited with a dedicated 488 nm line and emitted light detected with meta detector (500-530 nM).
(§2) Syto nuclear and dyes were excited with a dedicated 543 nm line, and emitted light detected with meta detector (570-610 nM). Fields of view were chosen based on the counterstain and at least three fields of view were recorded for each condition. […]

P. aeruginosa = assay: Confocal labelling of bacteria in the presence of human ARDS BALF; format: cell-based; conditions: 10 μM, n = 3 PBS, n = 5 ARDS, p < 0.001
Description: To determine the ability of UBI-3 to image bacteria in the continued presence of a complex inflammatory environment, bacteria were labelled with UBI-3 in the presence of broncho-alveolar lavage fluid (BALF) retrieved from ventilated ICU patients with Acute Respiratory Distress Syndrome (ARDS). ARDS BALF was utilised as ARDS is a severe life threatening pulmonary syndrome, characterized by a massive proteolytic and oxidative inflammatory environment within the distal alveolar region.[14] […] To design out susceptible amino acid cleavage points, a number of modifications were made (Table 1) and the functional consequences assessed. […]
as §1, §2

## CCCC[C@H](NC(=O)[C@H](CCCNC(=N)N)NC(=O)[C@H](CCCNC(=N)N)NC(=O)[C@H](CCCCN)NC(=O)[C@H](C)NC(=O)[C@H](CCCNC(=N)N)NC(=O)CNC(=O)[C@@H](NC(=O)CCCCCNc1ccc([N+](=O)[O-])c2nonc12)[C@@H](C)O)C(=O)N[C@@H](CCC(N)=O)C(=O)N[C@@H](Cc1ccc(O)cc1)C(=O)N[C@@H](CC(N)=O)C(=O)N[C@@H](CCCNC(=N)N)C(=O)N[C@@H](CCCNC(=N)N)C(N)=O [UBI-3] ({NBD-Ahx}-TGRAKRR[Nle]QYNRR-NH2)
[1]
  chemical stability in PBS at 37 °C: prevented by substitution of the Met to Nle
[2]
  bacterial labelling, Met vs Nle variant: retained bacterial labelling; also recorded: same fluorescence intensity
P. aeruginosa
  fluorescent labelling intensity of bacteria in ARDS BALF compared to PBS: significant reduction in the fluorescent labelling intensity; also recorded: significantly reduced intensity when compared to PBS
